{
  "source": "paper PMC10294390",
  "about": "(BMC Complementary Medicine and Therapies, 2023)",
  "key": {"[1]": {"test_system": "SW1116 human colon cancer cell line", "assay": "MTT assay, single and schedule-dependent combined treatment", "format": "cell-based", "conditions": "Sora 0.25-10 µM alone; for IC80: Homo sapiens, SW 1116, 72 h, read-out: IC-values (µM): IC80", "experimental": "(§1) The plates were washed, and PPCs [Cur, Kmf, or Que (60 or 120 µM), or Rsv (40 or 80 µM)] were added, followed by incubation at 37 °C for 48 h. For inverted sequential treatment, PPC [Cur, Kmf, or Que (60 or 120 µM), or Rsv (40 or 80 µM)] was added and incubated at 37 °C for 24 h. […] Cell growth was monitored as previously described."}, "[2]": {"test_system": "SW837 human rectum cancer cell line", "assay": "MTT assay, single and schedule-dependent combined treatment", "format": "cell-based", "conditions": "Sora 0.25-10 µM alone; for IC50: Homo sapiens, SW837, SW837, read-out: IC-values (µM): IC50", "experimental": "as §1"}, "SW1116 cells [3]": {"test_system": "SW1116 cells", "assay": "Cell cycle analysis by flow cytometry (PI)", "format": "cell-based, human", "conditions": "Sora 5 µM, 72 h", "experimental": "(§2) The cells were subsequently processed using a DNA-prep kit and DNA-Prep EPICS workstation. The cells were treated with a non-ionic detergent to permeabilize the cell membrane, followed by propidium iodide (PI) and RNase, and incubated at 15–20 °C for 15 min. The cells were resuspended in binding buffer at a concentration of 3–10 × 10^6 cells/ml for optimal staining. Fluorescence was measured using a flow cytometer (Beckman Coulter, Inc.), and the percentage of cells in the different phases of the cell cycle was calculated using the Phoenix statistical software package, Advanced DNA cell cycle software (Phoenix Flow System)."}, "SW837 cells [4]": {"test_system": "SW837 cells", "assay": "Cell cycle analysis by flow cytometry (PI)", "format": "cell-based, human", "conditions": "Sora 5 µM, 72 h", "experimental": "as §2"}, "SW1116 cells [5]": {"test_system": "SW1116 cells", "assay": "Annexin V-FITC/PI double staining, flow cytometry", "format": "cell-based, human", "experimental": "(§3) The levels of cell surface phosphatidylserine were determined to monitor the type of cell death and the kinetics of apoptosis. The CRC cell lines SW1116 and SW837 were seeded (2.5 × 10^5 cells/well) into 24-well plates and incubated in a non-CO2 incubator at 37 °C for 18 h. […] The cells were subsequently washed twice with HBSS and harvested using trypsin. Finally, the cells were double-stained using the Annexin V-FITC-Flous staining kit, according to the manufacturer’s instructions (Roche Diagnostic GmbH). Annexin V-Flous labelling solution containing Annexin V-FITC and PI (100 µl) was added to both the treated and control cell groups and incubated at 15–20 °C for 15 min. The cells (1 × 10^6 cells/ml) were then resuspended in binding buffer, and fluorescence was monitored using flow cytometry (FC500; Beckman Coulter, Inc.)."}, "SW837 cells [6]": {"test_system": "SW837 cells", "assay": "Annexin V-FITC/PI double staining, flow cytometry", "format": "cell-based, human", "experimental": "as §3"}, "SW1116 cells [7]": {"test_system": "SW1116 cells", "assay": "DNA fragmentation assay", "format": "cell-based, human", "conditions": "Sora 5 µM, PPC 200 and 400 µM, simultaneous combinations, 72 h, Fig. 8A, C", "experimental": "(§4) Induction of apoptosis was monitored using a DNA fragmentation assay following the manufacturer’s instructions (Apoptotic DNA Ladder Detection kit; Abcam). […] Cells were subsequently incubated at 37 °C for 72 h. The cells were then trypsinized, harvested, washed, pelleted, and lysed using Tris–EDTA (TE) lysis buffer (35 µl). Enzyme A solution (RNase; 5 µl) was added, followed by incubation at 37 °C for 10 min. Enzyme B solution (proteinase; 5 µl) was then added, followed by incubation at 50 °C for 30 min. Ammonium acetate solution (5 µl) and isopropanol (50 µl) were added to each sample and incubated at -20 °C for 10 min. Finally, the DNA was pelleted, washed with 0.5 ml 70% methanol, and dissolved in 30 µl DNA suspension buffer. The extracted DNA samples were loaded onto a 1.2% agarose gel, along with a loading marker (1 kb DNA ladder), and subjected to electrophoresis, using a running buffer containing 1.35 µg/ml ethidium bromide at 5 V/cm for 1 h. Ethidium bromide-stained DNA bands were visualized using transillumination with UV light."}, "SW837 cells [8]": {"test_system": "SW837 cells", "assay": "DNA fragmentation assay", "format": "cell-based, human", "conditions": "Sora 5 µM, PPC 200 and 400 µM, sequential combinations, 72 h, Fig. 8B, D", "experimental": "as §4"}, "[9]": {"test_system": "SW837 human rectum cancer cell line", "assay": "MTT assay, single and schedule-dependent combined treatment", "format": "cell-based", "conditions": "Sora 0.25-10 µM alone"}, "DLD-1 colon tumor model": {"test_system": "DLD-1 colon tumor model", "parameters": "method as in PMID 14692718", "conditions": "cited from earlier work"}, "[10]": {"conditions": "clinical treatment with Sora, cited from earlier work"}, "[11]": {"conditions": "arm a of simultaneous Sora and Cur 72 h"}, "[12]": {"conditions": "arm a of simultaneous Sora and Kmf 72 h"}, "[13]": {"conditions": "arm a of inverted sequential: Que 24 h followed by Sora 48 h"}, "[14]": {"conditions": "arm a of inverted sequential: Rsv 24 h followed by Sora 48 h"}, "[15]": {"conditions": "arm a of sequential: Sora 24 h followed by Que 48 h"}, "[16]": {"conditions": "arm a of sequential: Sora 24 h followed by Rsv 48 h"}},
  "note": "Read-outs that look alike come from different tables or passages of the source.",
  "data": [
    {"smiles": "CNC(=O)c1cc(Oc2ccc(NC(=O)Nc3ccc(Cl)c(C(F)(F)F)c3)cc2)ccn1", "note": "[Sora, sorafenib]", "values": [
      {"measurement": "IC80", "setting": "[1]; [11]", "value": 4.86, "unit": "µM"},
      {"measurement": "IC80", "setting": "[1]; [12]", "value": 4.86, "unit": "µM"},
      {"measurement": "IC80", "setting": "[1]; arm a of simultaneous Sora and Que 72 h", "value": 4, "unit": "µM"},
      {"measurement": "IC-values (µM): IC70", "setting": "[1]; arm a of inverted sequential: Cur 24 h followed by Sora 48 h", "value": "IC70 = 6.00 µM"},
      {"measurement": "IC-values (µM): IC60", "setting": "[1]; arm a of inverted sequential: Kmf 24 h followed by Sora 48 h", "value": "IC60 = 4.86 µM"},
      {"measurement": "IC-values (µM): IC60", "setting": "[1]; [13]", "value": "IC60 = 4.86 µM"},
      {"measurement": "IC-values (µM): IC60", "setting": "[1]; [14]", "value": "IC60 = 4.86 µM"},
      {"measurement": "IC-values (µM): IC60", "setting": "[1]; arm a of sequential: Sora 24 h followed by Cur 48 h", "value": "IC60 = 7.70 µM"},
      {"measurement": "IC-values (µM): IC60", "setting": "[1]; arm a of sequential: Sora 24 h followed by Kmf 48 h", "value": "IC60 = 0.57 µM"},
      {"measurement": "IC-values (µM): IC60", "setting": "[1]; [15]", "value": "IC60 = 0.57 µM"},
      {"measurement": "IC-values (µM): IC60", "setting": "[1]; [16]", "value": "IC60 = 0.57 µM"},
      {"measurement": "IC50", "setting": "[2]; [13]", "value": 6.86, "unit": "µM"},
      {"measurement": "IC50", "setting": "[2]; [14]", "value": 6.57, "unit": "µM"},
      {"measurement": "IC50", "setting": "[2]; [15]", "value": 6.86, "unit": "µM"},
      {"measurement": "IC50", "setting": "[2]; [16]", "value": 6.86, "unit": "µM"},
      {"measurement": "IC-values (µM): IC60", "setting": "[2]; SW837, arm a of inverted sequential: Cur 24 h followed by Sora 48 h", "value": "IC60 = 8.00 µM"},
      {"measurement": "IC-values (µM): IC60", "setting": "[2]; SW837, arm a of inverted sequential: Kmf 24 h followed by Sora 48 h", "value": "IC60 = 7.43 µM"},
      {"measurement": "IC-values (µM): IC70", "setting": "[2]; SW837, arm a of sequential: Sora 24 h followed by Cur 48 h", "value": "IC70 = 0.86 µM"},
      {"measurement": "IC-values (µM): IC60", "setting": "[2]; SW837, arm a of sequential: Sora 24 h followed by Kmf 48 h", "value": "IC60 = 7.43 µM"},
      {"measurement": "%G0/G1 (cells in G0/G1 phase)", "setting": "SW1116 cells [3]", "value": 38.0, "unit": "%"},
      {"measurement": "%G2/M (cells in G2/M phase)", "setting": "SW1116 cells [3]", "value": 0.0, "unit": "%"},
      {"measurement": "%S (cells in S phase)", "setting": "SW1116 cells [3]", "value": 61.0, "unit": "%"},
      {"measurement": "%SubG1 (cells in sub G1)", "setting": "SW1116 cells [3]", "value": 8.4, "unit": "%"},
      {"measurement": "%G0/G1 (cells in G0/G1 phase)", "setting": "SW837 cells [4]", "value": 52.0, "unit": "%"},
      {"measurement": "%G2/M (cells in G2/M phase)", "setting": "SW837 cells [4]", "value": 12.9, "unit": "%"},
      {"measurement": "%S (cells in S phase)", "setting": "SW837 cells [4]", "value": 34.9, "unit": "%"},
      {"measurement": "%SubG1 (cells in sub G1)", "setting": "SW837 cells [4]", "value": 1.4, "unit": "%"},
      {"measurement": "viability at 5 µM", "setting": "SW1116 cells [5]; Homo sapiens, SW 1116, 72 h, read-out: B3, percentage of viable cells", "value": 14.1, "unit": "%"},
      {"measurement": "B1, percentage of necrotic cells", "setting": "SW1116 cells [5]; SW1116, Sora 5 µM, 72 h", "value": 13.6, "unit": "%"},
      {"measurement": "B2, percentage of late apoptotic cells", "setting": "SW1116 cells [5]; SW1116, Sora 5 µM, 72 h", "value": 37.3, "unit": "%"},
      {"measurement": "B4, percentage of early apoptotic cells", "setting": "SW1116 cells [5]; SW1116, Sora 5 µM, 72 h", "value": 35, "unit": "%"},
      {"measurement": "viability at 5 µM", "setting": "SW837 cells [6]; Homo sapiens, SW837, 72 h, read-out: B3, percentage of viable cells", "value": 52.4, "unit": "%"},
      {"measurement": "B1, percentage of necrotic cells", "setting": "SW837 cells [6]; SW837, Sora 5 µM, 72 h", "value": 9.6, "unit": "%"},
      {"measurement": "B2, percentage of late apoptotic cells", "setting": "SW837 cells [6]; SW837, Sora 5 µM, 72 h", "value": 33.6, "unit": "%"},
      {"measurement": "B4, percentage of early apoptotic cells", "setting": "SW837 cells [6]; SW837, Sora 5 µM, 72 h", "value": 4.7, "unit": "%"},
      {"measurement": "induction of apoptosis as indicated by DNA fragmentation", "setting": "SW1116 cells [7]", "value": "marked induction of apoptosis"},
      {"measurement": "DNA fragmentation", "setting": "SW837 cells [8]", "value": "increased levels of DNA fragmentation"},
      {"measurement": "IC50", "setting": "[9]; Homo sapiens, SW837, 72 h, arm a of simultaneous Sora and Que 72 h, read-out: IC-values (µM): IC50", "value": 6.57, "unit": "µM"},
      {"measurement": "IC-values (µM): IC60", "setting": "[9]; [11]", "value": "IC60 = 7.43 µM"},
      {"measurement": "IC-values (µM): IC60", "setting": "[9]; [12]", "value": "IC60 = 7.14 µM"},
      {"measurement": "IC-values (µM): IC60", "setting": "[9]; arm a of simultaneous Sora and Rsv 72 h", "value": "IC60 = 7.71 µM"},
      {"measurement": "delay of tumor cell growth", "setting": "DLD-1 colon tumor model", "value": 100, "unit": "%"},
      {"measurement": "patients in whom side effects demand a dose reduction", "setting": "[10]", "value": "> 60", "unit": "%"},
      {"measurement": "patients with inhibition of treatment due to side effects", "setting": "[10]", "value": "6–25%"},
      {"measurement": "patients developing toxic side effects", "setting": "[10]; hand-foot syndrome, diarrhoea, fatigue, rash, weight loss", "value": "up to 80%"}
    ]}
  ]
}
